Columns and labels:
Format in all cases: cell-based
Ovcar-3 cells [1] = assay: Invasion assay (Matrigel Boyden chamber) in Ovcar-3 cells; conditions: 100 ng/ml IGF-1, vs untreated, n=2
Method: FBS (10%) mediated cell migration through an extracellular matrix was measured by Boyden chamber assay [(BD Biocoat™ Matrigel invasion chamber) BD Biosciences; Cat. No. 354480)] following the manufacturer's instructions. Briefly, Caov-3 cells were transfected with PAPPA siRNA or control siRNA (negative control) as described above. Caov-3 cells were treated with IGFR blocking antibody or untreated as described previously. Ovcar-3 cells were treated with IGF-1 or untreated as described previously. Prior to transfections or treatments the cells were serum starved for 24 hrs. Caov-3 cells were collected in DMEM medium containing 5% BSA, counted and 0.5×10^5 cells were added to each invasion assay chamber. Ovcar-3 cells were collected in RPMI medium containing 5% BSA, counted and 2×10^5 cells were added to each invasion assay chamber. After incubation for 48 hrs the invasion chamber inserts were washed with PBS, fixed in 4% formaldehyde for 5 min, stained with 0.01% crystal violet or haematoxylin and cells from random areas on the filters were counted.

Ovcar-3 cells [2] = assay: Mitotic phase distribution analysis (H3S10ph immunostaining) in Ovcar-3 cells; conditions: 100 ng/ml IGF-1 for 48 hrs, vs untreated, p=0.055
Caov-3 cells [3] = assay: XTT viability assay in Caov-3 cells
Method: Caov-3 or Ovcar-3 cells were plated at a density of 1×10^4 cells per well into a 96-well tissue culture plate. The cell number was determined using the Countess™ automated cell counter (Life Technologies). Where indicated paclitaxel and IGF-1 were added. The final volume of the tissue culture medium was 0.1 ml. Prior to the experiment for each 96 well plate, 5 ml XTT solution and 0.1 ml activation reagent (New England Biolabs; Cat. No. 9095S) were mixed. 50 μl of the activated solution was added to each well and incubated at 37° C. for 4 hrs. The plates were shaken gently to evenly distribute the dye in the wells. After the 4 hrs incubation the absorbance of the samples was measured using a Spectramax M5e plate reader (Molecular Devices; Mod. No. M5e) at a wavelength of 450 nm.

Ovcar-3 cells [4] = assay: XTT viability assay in Ovcar-3 cells; conditions: 25 nM paclitaxel for 24 hrs (5x the concentration used in Caov-3)
Method: Caov-3 cells (ATCC® HTB-75™) were cultured in DMEM (Life Technologies; Cat. No. 31966-021) supplemented with 10% FBS (Life Technologies; Lot #41Q822OK) and GlutaMAX™ (Life Technologies; Cat. No. 35050-038). Ovcar-3 cells (ATCC® HTB-161™) were cultured in RPMI 1640 (LGC Standards; Cat. No. 30-2001) supplemented with 20% FBS (Life Technologies) and 10 μg/ml bovine insulin (Sigma Aldrich, Cat. No. 10516). Cells were cultured at 37° C. with 5% CO2 and ≧95% humidity. Cells were harvested following incubation with TrypLE™ Express (Life Technologies; Cat. No. 126005-010). Cell density and viability were determined by trypan blue exclusion using a Countess® Automated Cell Counter (Life Technologies; Mod No. C10281). […] Where indicated, Caov-3 cells were treated with 100 ng/ml IGFR blocking antibody (Millipore; Lot #30080) for 24 hrs, 100 ng/ml IGF-1 (Life Technologies; Lot #73159414A) for 48 hrs or 5 nM paclitaxel (Taxol® Sigma Aldrich; Lot #091M1781V) for 24 hrs. Ovcar-3 cells, where indicated, were treated with 100 ng/ml IGF-1 for 48 hrs or 25 nM paclitaxel for 24 hrs. […] The cell number was determined using the Countess™ automated cell counter (Life Technologies). […] After the 4 hrs incubation the absorbance of the samples was measured using a Spectramax M5e plate reader (Molecular Devices; Mod. No. M5e) at a wavelength of 450 nm.

Caov-3 cells [5] = assay: Apoptotic DNA ladder detection in Caov-3 cells; conditions: 5 nM paclitaxel for 24 hrs
Method: Caov-3 cells (ATCC® HTB-75TM) were cultured in DMEM (Life Technologies; Cat. No. 31966-021) supplemented with 10% FBS (Life Technologies; Lot #41Q822OK) and GlutaMAXTM (Life Technologies; Cat. No. 35050-038). […] Cells were cultured at 37° C. with 5% CO2 and ≧95% humidity. Cells were harvested following incubation with TrypLETM Express (Life Technologies; Cat. No. 126005-010). Cell density and viability were determined by trypan blue exclusion using a Countess® Automated Cell Counter (Life Technologies; Mod No. C10281). […] Where indicated, Caov-3 cells were treated with 100 ng/ml IGFR blocking antibody (Millipore; Lot #30080) for 24 hrs, 100 ng/ml IGF-1 (Life Technologies; Lot #73159414A) for 48 hrs or 5 nM paclitaxel (Taxol® Sigma Aldrich; Lot #091M1781V) for 24 hrs. Ovcar-3 cells, where indicated, were treated with 100 ng/ml IGF-1 for 48 hrs or 25 nM paclitaxel for 24 hrs. Caov-3 or Ovcar-3 cells were plated into [MUT]^2 culture flasks in a volume of 25 ml. The cells were seeded at 1×10^6 cells per flask as determined using the CountessTM automated cell counter (Life Technologies). Where indicated paclitaxel, IGF-1, or IGF-1+paclitaxel were added. […] DNA was resuspended in 30 μl nuclease-free water (Ambion; Cat. No. AM9937) and was quantified using a NanoVue Plus Spectrophotometer (GE Healthcare). […]

Molecule	invasiveness (number of invading cells, Boyden chamber assay) (Ovcar-3 cells [1])	mitotic delay (mitotic cells in prophase/prometaphase) (Ovcar-3 cells [2])	cell viability (XTT assay) (Caov-3 cells [3]; 100 ng/ml IGF-1 for 48 hrs, added alone)	response to paclitaxel treatment (morphology, XTT viability, apoptosis) (Ovcar-3 cells [4])	cell viability (XTT assay) (Caov-3 cells [3]; 5 nM paclitaxel for 24 hrs)	apoptosis (DNA apoptosis kit) (Caov-3 cells [5])
IGF-1: insulin-like growth factor-1, recombinant, exogenously added (Life Technologies); IGF-1 receptor agonist	reduced	decrease	no effect	–	–	–
CC(=O)O[C@H]1C(=O)[C@@]2(C)[C@H]([C@H](OC(=O)c3ccccc3)[C@]3(O)C[C@H](OC(=O)[C@H](O)[C@@H](NC(=O)c4ccccc4)c4ccccc4)C(C)=C1C3(C)C)[C@]1(OC(C)=O)CO[C@@H]1C[C@@H]2O [paclitaxel]	–	–	–	not responding	decreased	induction of apoptosis
